{"source": "paper PMC9403976", "about": "“Elucidating the path to Plasmodium prolyl-tRNA synthetase inhibitors that overcome halofuginone resistance” (Nature Communications, 2022)", "key": {"P. falciparum Dd2-2D4": {"test_system": "P. falciparum Dd2-2D4", "test": "P. falciparum asexual blood stage (ABS) growth assay, SYBR Green, 72 h, wild-type parasites", "format": "cell-based, Plasmodium falciparum", "conditions": "Plasmodium falciparum, DD2; SI Fig 16b; values on -log scale; read-out: ABS - Dd2-2D4 (converted)"}, "PfcProRS": {"molecular_target": "T1, PfcProRS (Plasmodium falciparum, UniProt Q8I5R7)", "T1 construct": "made in house; host or cells: E. coli SoluBL-21", "T1 sequence (Q8I5R7 249-746)": "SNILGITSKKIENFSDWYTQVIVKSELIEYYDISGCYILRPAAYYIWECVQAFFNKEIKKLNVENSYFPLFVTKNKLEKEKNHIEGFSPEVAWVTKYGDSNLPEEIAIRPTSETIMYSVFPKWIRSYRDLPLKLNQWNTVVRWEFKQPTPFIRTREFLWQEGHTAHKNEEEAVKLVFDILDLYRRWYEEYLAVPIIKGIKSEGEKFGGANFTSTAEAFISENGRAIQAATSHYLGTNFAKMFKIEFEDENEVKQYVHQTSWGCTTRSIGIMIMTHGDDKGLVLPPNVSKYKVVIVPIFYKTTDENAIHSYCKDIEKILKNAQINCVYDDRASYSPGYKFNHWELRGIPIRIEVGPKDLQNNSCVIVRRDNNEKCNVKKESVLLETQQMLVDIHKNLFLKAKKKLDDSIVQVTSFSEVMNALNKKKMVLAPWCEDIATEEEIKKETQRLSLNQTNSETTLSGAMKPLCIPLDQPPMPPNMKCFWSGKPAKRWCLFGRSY", "format": "binding", "conditions": "for dose-response signal (normalized), SI Fig 8: single replicates"}, "HsProRS": {"molecular_target": "HsProRS (Homo sapiens, UniProt P07814)", "sequence (P07814 996-1512)": "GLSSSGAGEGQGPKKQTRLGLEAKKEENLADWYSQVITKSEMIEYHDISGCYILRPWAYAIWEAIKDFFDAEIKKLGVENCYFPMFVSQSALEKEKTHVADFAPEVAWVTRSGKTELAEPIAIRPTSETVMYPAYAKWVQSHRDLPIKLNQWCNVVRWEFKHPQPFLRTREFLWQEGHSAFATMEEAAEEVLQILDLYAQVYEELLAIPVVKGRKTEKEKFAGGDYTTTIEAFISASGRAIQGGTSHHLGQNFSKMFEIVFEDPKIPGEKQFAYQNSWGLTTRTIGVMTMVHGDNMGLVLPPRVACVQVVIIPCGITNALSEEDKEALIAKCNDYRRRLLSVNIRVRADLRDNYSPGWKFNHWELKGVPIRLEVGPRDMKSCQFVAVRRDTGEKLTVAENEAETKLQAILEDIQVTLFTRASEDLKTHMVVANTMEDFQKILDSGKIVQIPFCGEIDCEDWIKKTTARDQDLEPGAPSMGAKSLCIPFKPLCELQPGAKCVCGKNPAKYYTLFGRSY", "test": "TR-FRET ligand displacement assay with tracer MAT379 (CoraFluor-1-Halo and anti-His6 antibody formats)", "format": "binding", "set-up": "made in house; host or cells: E. coli SoluBL-21", "conditions": "for TR-FRET dose-response, normalized signal (SI Fig 11): individual replicates"}}, "note": "Where “and” joins values, the source holds several entries; their conditions need not be identical. Equal values may be shown once. Read-outs that look alike come from different tables or passages of the source.", "data": [{"smiles": "O=C(NC1Cc2ccccc2C1)c1nccnc1NC(=O)N1CCC(CCO)CC1", "note": "[compound 12]", "values": [{"measurement": "EC50", "setting": "P. falciparum Dd2-2D4", "value": 0.153, "unit": "µM"}, {"measurement": "dose-response signal (normalized), SI Fig 8", "setting": "PfcProRS; Log[inhibitor] (M) -5.000", "value": "1.96E-01 and 6.39E-02 and 9.88E-02"}, {"measurement": "dose-response signal (normalized), SI Fig 8", "setting": "PfcProRS; Log[inhibitor] (M) -5.301", "value": "1.70E-01 and 1.45E-01 and 2.26E-01"}, {"measurement": "dose-response signal (normalized), SI Fig 8", "setting": "PfcProRS; Log[inhibitor] (M) -5.601", "value": "3.61E-01 and 2.68E-01 and 3.67E-01"}, {"measurement": "dose-response signal (normalized), SI Fig 8", "setting": "PfcProRS; Log[inhibitor] (M) -5.904", "value": "5.30E-01 and 5.32E-01 and 5.86E-01"}, {"measurement": "dose-response signal (normalized), SI Fig 8", "setting": "PfcProRS; Log[inhibitor] (M) -6.208", "value": "7.40E-01 and 8.32E-01 and 8.18E-01"}, {"measurement": "dose-response signal (normalized), SI Fig 8", "setting": "PfcProRS; Log[inhibitor] (M) -6.509", "value": "9.11E-01 and 8.45E-01 and 9.67E-01"}, {"measurement": "dose-response signal (normalized), SI Fig 8", "setting": "PfcProRS; Log[inhibitor] (M) -6.796", "value": "1.07E+00 and 9.35E-01 and 8.42E-01"}, {"measurement": "dose-response signal (normalized), SI Fig 8", "setting": "PfcProRS; Log[inhibitor] (M) -7.108", "value": "1.04E+00 and 9.91E-01 and 9.07E-01"}, {"measurement": "dose-response signal (normalized), SI Fig 8", "setting": "PfcProRS; Log[inhibitor] (M) -7.409", "value": "1.05E+00 and 1.07E+00 and 9.30E-01"}, {"measurement": "dose-response signal (normalized), SI Fig 8", "setting": "PfcProRS; Log[inhibitor] (M) -7.710", "value": "9.50E-01 and 9.05E-01 and 1.01E+00"}, {"measurement": "dose-response signal (normalized), SI Fig 8", "setting": "PfcProRS; Log[inhibitor] (M) -8.000", "value": "1.00E+00 and 9.33E-01 and 9.19E-01"}, {"measurement": "dose-response signal (normalized), SI Fig 8", "setting": "PfcProRS; Log[inhibitor] (M) -8.301", "value": "1.00E+00 and 9.74E-01 and 1.08E+00"}, {"measurement": "dose-response signal (normalized), SI Fig 8", "setting": "PfcProRS; Log[inhibitor] (M) -8.602", "value": "9.86E-01 and 9.74E-01 and 9.65E-01"}, {"measurement": "dose-response signal (normalized), SI Fig 8", "setting": "PfcProRS; Log[inhibitor] (M) -9.000", "value": "9.41E-01 and 9.53E-01 and 9.73E-01"}, {"measurement": "dose-response signal (normalized), SI Fig 8", "setting": "PfcProRS; Log[inhibitor] (M) -9.301", "value": "9.78E-01 and 8.31E-01 and 1.01E+00"}, {"measurement": "PfcProRS -- best Kd", "setting": "PfcProRS; SI Fig 16a, values on -log scale", "value": 6.470}, {"measurement": "Kd", "setting": "HsProRS; HsProRS (KD [nM]) mean, no added proline/ATP (-)", "value": 687, "unit": "nM"}, {"measurement": "Kd", "setting": "HsProRS; HsProRS - best Kd, SI Fig 16a, values on -log scale", "value": 150, "unit": "nM"}, {"measurement": "normalized TR-FRET ligand displacement signal, dose-response replicates (SI Fig 6)", "setting": "HsProRS; Log[inhibitor] (M) -5.000", "value": "1.59E-01 and 1.60E-01 and 2.09E-01"}, {"measurement": "TR-FRET dose-response, normalized signal (SI Fig 11)", "setting": "HsProRS; Log[inhibitor] (M) -5.000", "value": "3.68E-02 (2×) and 3.81E-02"}, {"measurement": "normalized TR-FRET ligand displacement signal, dose-response replicates (SI Fig 6)", "setting": "HsProRS; Log[inhibitor] (M) -5.301", "value": "3.23E-01 and 2.51E-01 and 1.66E-01"}, {"measurement": "TR-FRET dose-response, normalized signal (SI Fig 11)", "setting": "HsProRS; Log[inhibitor] (M) -5.301", "value": "1.17E-01 and 1.16E-01 and 1.37E-01"}, {"measurement": "normalized TR-FRET ligand displacement signal, dose-response replicates (SI Fig 6)", "setting": "HsProRS; Log[inhibitor] (M) -5.601", "value": "4.15E-01 (2×) and 3.76E-01"}, {"measurement": "TR-FRET dose-response, normalized signal (SI Fig 11)", "setting": "HsProRS; Log[inhibitor] (M) -5.601", "value": "3.29E-01 and 2.78E-01 and 2.37E-01"}, {"measurement": "normalized TR-FRET ligand displacement signal, dose-response replicates (SI Fig 6)", "setting": "HsProRS; Log[inhibitor] (M) -5.904", "value": "6.44E-01 and 5.20E-01 and 5.13E-01"}, {"measurement": "TR-FRET dose-response, normalized signal (SI Fig 11)", "setting": "HsProRS; Log[inhibitor] (M) -5.904", "value": "4.76E-01 and 4.29E-01 and 4.93E-01"}, {"measurement": "normalized TR-FRET ligand displacement signal, dose-response replicates (SI Fig 6)", "setting": "HsProRS; Log[inhibitor] (M) -6.208", "value": "7.49E-01 and 7.87E-01 and 7.20E-01"}, {"measurement": "TR-FRET dose-response, normalized signal (SI Fig 11)", "setting": "HsProRS; Log[inhibitor] (M) -6.208", "value": "5.93E-01 and 6.01E-01 and 5.70E-01"}, {"measurement": "normalized TR-FRET ligand displacement signal, dose-response replicates (SI Fig 6)", "setting": "HsProRS; Log[inhibitor] (M) -6.509", "value": "9.12E-01 and 8.62E-01 and 8.67E-01"}, {"measurement": "TR-FRET dose-response, normalized signal (SI Fig 11)", "setting": "HsProRS; Log[inhibitor] (M) -6.509", "value": "7.07E-01 and 6.82E-01 and 7.18E-01"}, {"measurement": "normalized TR-FRET ligand displacement signal, dose-response replicates (SI Fig 6)", "setting": "HsProRS; Log[inhibitor] (M) -6.796", "value": "1.06E+00 and 1.12E+00 and 9.20E-01"}, {"measurement": "TR-FRET dose-response, normalized signal (SI Fig 11)", "setting": "HsProRS; Log[inhibitor] (M) -6.796", "value": "7.97E-01 and 7.75E-01 and 7.79E-01"}, {"measurement": "normalized TR-FRET ligand displacement signal, dose-response replicates (SI Fig 6)", "setting": "HsProRS; Log[inhibitor] (M) -7.108", "value": "1.07E+00 and 1.02E+00 and 1.12E+00"}, {"measurement": "TR-FRET dose-response, normalized signal (SI Fig 11)", "setting": "HsProRS; Log[inhibitor] (M) -7.108", "value": "8.56E-01 and 8.75E-01 and 8.83E-01"}, {"measurement": "normalized TR-FRET ligand displacement signal, dose-response replicates (SI Fig 6)", "setting": "HsProRS; Log[inhibitor] (M) -7.409", "value": "1.02E+00 and 1.06E+00 (2×)"}, {"measurement": "TR-FRET dose-response, normalized signal (SI Fig 11)", "setting": "HsProRS; Log[inhibitor] (M) -7.409", "value": "8.85E-01 and 8.47E-01 and 8.63E-01"}, {"measurement": "normalized TR-FRET ligand displacement signal, dose-response replicates (SI Fig 6)", "setting": "HsProRS; Log[inhibitor] (M) -7.710", "value": "9.85E-01 and 1.01E+00 and 9.72E-01"}, {"measurement": "TR-FRET dose-response, normalized signal (SI Fig 11)", "setting": "HsProRS; Log[inhibitor] (M) -7.710", "value": "8.80E-01 and 8.88E-01 and 8.59E-01"}, {"measurement": "normalized TR-FRET ligand displacement signal, dose-response replicates (SI Fig 6)", "setting": "HsProRS; Log[inhibitor] (M) -8.000", "value": "9.44E-01 and 9.64E-01 and 9.22E-01"}, {"measurement": "TR-FRET dose-response, normalized signal (SI Fig 11)", "setting": "HsProRS; Log[inhibitor] (M) -8.000", "value": "9.20E-01 and 9.38E-01 and 9.24E-01"}, {"measurement": "normalized TR-FRET ligand displacement signal, dose-response replicates (SI Fig 6)", "setting": "HsProRS; Log[inhibitor] (M) -8.301", "value": "9.32E-01 and 1.05E+00 and 8.26E-01"}, {"measurement": "TR-FRET dose-response, normalized signal (SI Fig 11)", "setting": "HsProRS; Log[inhibitor] (M) -8.301", "value": "8.82E-01 and 8.99E-01 and 9.20E-01"}, {"measurement": "normalized TR-FRET ligand displacement signal, dose-response replicates (SI Fig 6)", "setting": "HsProRS; Log[inhibitor] (M) -8.602", "value": "1.02E+00 and 1.07E+00 and 9.72E-01"}, {"measurement": "TR-FRET dose-response, normalized signal (SI Fig 11)", "setting": "HsProRS; Log[inhibitor] (M) -8.602", "value": "9.41E-01 and 8.91E-01 and 9.25E-01"}, {"measurement": "normalized TR-FRET ligand displacement signal, dose-response replicates (SI Fig 6)", "setting": "HsProRS; Log[inhibitor] (M) -9.000", "value": "9.71E-01 and 8.87E-01 and 1.00E+00"}, {"measurement": "TR-FRET dose-response, normalized signal (SI Fig 11)", "setting": "HsProRS; Log[inhibitor] (M) -9.000", "value": "9.29E-01 and 9.20E-01 and 9.52E-01"}, {"measurement": "normalized TR-FRET ligand displacement signal, dose-response replicates (SI Fig 6)", "setting": "HsProRS; Log[inhibitor] (M) -9.301", "value": "1.06E+00 and 9.50E-01 and 9.98E-01"}, {"measurement": "TR-FRET dose-response, normalized signal (SI Fig 11)", "setting": "HsProRS; Log[inhibitor] (M) -9.301", "value": "9.00E-01 and 9.10E-01 and 9.03E-01"}]}]}
